Like-named read-outs stand apart in the source and are kept apart here. Where a SMILES comes first, the peptide text is derived from it. Side-chain parts run from the residue outwards. [ ]: non-standard residue; d: D form. The star is where a group is joined. 2Nal = N[C@@H](Cc1ccc2ccccc2c1)C(=O)O; dNMeOrn = CN[C@H](CCCN)C(=O)O; 4Abz = Nc1ccc(C(=O)O)cc1; X1 = NCCNCC(CNCCN)C(=O)*; dDap = NC[C@@H](N)C(=O)O
Legend:
[1] = Blood clearance / excretion in patients; assay type: in vivo, human; settings: for half-life: human, whole blood, iv
Method: [^99mTc]Tc-PentixaTec scans were performed using a dual head gamma camera (GE Discovery NM/CT 670 Pro, Milwaukee, WI, USA). In the four patients undergoing dosimetry, planar dynamic whole body scans were performed 5 min, 30 min, and 1 h with a bed speed of 30 cm/min; 2 h, 3 h, and 5 h with a speed of 12 cm/min; and 24 h with a speed of 5 cm/min after tracer injection. SPECT/CT imaging was performed following the 3-h planar imaging with 60 views and a frame duration of 8 s. Attenuation maps were generated on the basis of low-dose CT.
Venous blood samples (2.7 mL) were drawn directly before each planar scan. A cross-calibrated well-counter (Digibase, Ametek, Oak Ridge, TN, USA) was used to measure activity in the blood samples, resulting in the average activity per mL blood. Plasma half-life was calculated using NUKFIT software.

[2] = system: Jurkat xenograft bearing CB17/SCID mice; experiment: Biodistribution in Jurkat xenograft-bearing mice, 1 h p.i.; assay type: in vivo; settings: n = 5, mean ± SD
Method: Female CB17/SCID mice bearing subcutaneous Jurkat human T cell lymphoma xenografts (for more detailed information, see supplemental material) were injected intravenously with the respective ^99mTc-labeled tracer (5–20 MBq, 0.1–0.2 nmol/mouse) under isofluorane anesthesia and were sacrificed at 1 h post-injection (p.i.). The organs of interest were dissected, and the activity concentration in weighed tissue samples was quantified using a WIZARD^2® 2480 automatic γ-Counter from Perkin Elmer (Waltham MA, USA). Biodistribution data are given in %iD/g and represent means ± SD (groups of n = 4–5 animals). Statistical analysis (t-test) was performed using GraphPad Prism.
To establish tumor xenografts, Jurkat cells (2 – 3x10^7 cells) were suspended in a mixture of RPMI 1640 medium and Matrigel (1/1; v/v) (BD Biosciences, Heidelberg, Germany), and injected subcutaneously into the right shoulder of 6–10 weeks old CB17-SCID mice from either Charles River GmbH (Sulzfeld, Germany) or the in-house mouse breeding facility. As soon as tumors had grown to a diameter of 5–8 mm (4 – 10 weeks after inoculation), mice were used for the experiments.

[3] = Safety monitoring in patients (adverse events); assay type: in vivo, human
Method: Five patients (age, 48–72 y, median 66 y) with a history of hematological malignancy underwent imaging after intravenous injection of a median of 558 MBq (range, 417–601) [^99mTc]Tc-PentixaTec. […] Safety was assessed by monitoring adverse events after administration of [^99mTc]PentixaTec.

Structure (SMILES): C[C@@H](NC(=O)[C@@H](CCCNC(=N)N)NC(=O)[C@@H](CN)NC(=O)C(CNCCN)CNCCN)C(=O)Nc1ccc(C(=O)NCCC[C@@H]2C(=O)N[C@@H](CCCNC(=N)N)C(=O)N[C@@H](Cc3ccc4ccccc4c3)C(=O)NCC(=O)N[C@H](Cc3ccc(O)cc3)C(=O)N2C)cc1 [[^99mTc]Tc-N4-L6-CPCR4, [^99mTc]Tc-N4-dap-r-a-Abz-CPCR4, metal not drawn] (cyclo([dY][dNMeOrn]([4Abz-dA-dR-dDap-X1])R[2Nal]G))
- hepatobiliary excretion [1]: no significant hepatobiliary excretion
- half-life ([1]; read-out: plasma half-life, median): 19 min
- half-life ([1]; read-out: plasma half-life, range): 15 to 25 min
- Biodistribution Tumor (tumor accumulation) ([2]; Jurkat xenograft): 8.6 ± 1.3 %iD/g
- Biodistribution Muscle [2]: 0.3 ± 0.05 %iD/g
- Biodistribution Spleen [2]: 5.6 ± 0.8 %iD/g
- adverse events ([3]; five patients): no adverse events were recorded
- tolerability ([3]; five patients with hematologic malignancies): well tolerated

From paper PMC10611619, “[^99mTc]Tc-PentixaTec: development, extensive pre-clinical evaluation, and first human experience” (European Journal of Nuclear Medicine and Molecular Imaging, 2023)
